Data on one compound can be found in patent publication US3931196A, “Phosphinolines and phosphindolines” (Monash University, priority 1972, dated 1976).

The nature of data set [1]: McKenzie Beechey Mouse Tail Stimulation Test (analgesic activity). The data set is classed as in vivo. As to conditions: compound active at 16mg/kg. Here is the method:
The compounds described above were subjected to a Mouse Writhing Test and to the McKenzie Beechey Mouse Tail Stimulation Test (1962, Archives Internationales de Pharmacodynamae et de Therapie, 135) to determine their analgesic activities. The test compounds were prepared as 1.0% solutions in carboxymethylcellulose. The control in all tests was carboxymethylcellulose.

The nature of a further data set: toxicity test (LD50). As to conditions: in vivo, species and route not given.

For orientation: LD50 means the dose at which mortality reaches 50%. The low end stands for greater toxicity, the high end for lower toxicity. For `CN(C)CCP1(=S)CCCc2ccccc21` (centres unmarked) [Compound 19, 1-(2-N,N-Dimethylamino)ethyl-1-thio-1,2,3,4-tetrahydrophosphinoline], the “activity relative to morphine in the Tail Stimulation Test” value in data set [1] is listed as “comparable to morphine”. This compound gave a median lethal dose (LD50) in the data set “toxicity test (LD50)” of 170 mg/kg.
